# Experimental data as given in US9249140B2, “Bicyclic heteroaromatic compounds” (MERCK PATENT GMBH, priority 2011, dated 2016).
# How the values were obtained:
# Assay type in all cases: biochemical
# IKKε = molecular target: T1, IKKε (Homo sapiens, UniProt Q14164); assay: IKKε kinase test (IKKepsilon), 384-well flashplate; conditions: enzymatic; 10 μM ATP; read-out: IKKe IC50 (enzymatic)
# T1 construct: 1 nM IKKε, 800 nM biotinylated IκBα(19-42) peptide
# T1 sequence (Q14164 1-716): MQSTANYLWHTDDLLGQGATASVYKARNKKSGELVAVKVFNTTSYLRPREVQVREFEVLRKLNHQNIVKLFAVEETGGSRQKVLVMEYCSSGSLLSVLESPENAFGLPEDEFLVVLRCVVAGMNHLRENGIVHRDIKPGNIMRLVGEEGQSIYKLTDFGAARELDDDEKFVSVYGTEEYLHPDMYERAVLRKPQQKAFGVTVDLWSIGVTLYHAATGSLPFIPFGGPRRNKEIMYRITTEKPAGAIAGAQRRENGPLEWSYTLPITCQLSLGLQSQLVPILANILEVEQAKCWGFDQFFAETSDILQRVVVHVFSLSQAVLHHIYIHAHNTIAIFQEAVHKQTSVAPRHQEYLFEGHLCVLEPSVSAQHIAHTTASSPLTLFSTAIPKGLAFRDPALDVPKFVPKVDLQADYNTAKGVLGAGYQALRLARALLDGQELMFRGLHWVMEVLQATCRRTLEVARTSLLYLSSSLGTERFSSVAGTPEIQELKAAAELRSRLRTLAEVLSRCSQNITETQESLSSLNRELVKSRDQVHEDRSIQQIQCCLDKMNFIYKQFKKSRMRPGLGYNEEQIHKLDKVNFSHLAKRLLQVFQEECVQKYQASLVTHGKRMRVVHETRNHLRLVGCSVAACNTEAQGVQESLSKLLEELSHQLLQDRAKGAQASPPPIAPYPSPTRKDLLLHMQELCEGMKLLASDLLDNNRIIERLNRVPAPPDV
# Method: The kinase assay is performed as 384-well flashplate assay. 1 nM IKKε, 800 nM biotinylated IκBα(19-42) peptide (biotin-C6-C6-[…] (SEQ ID NO: 2)) and 10 μM ATP (with 0.3 μCi of 33P-ATP/well) are incubated in a total volume of 50 μl (10 mM MOPS, 10 mM magnesium acetate, 0.1 mM EGTA, 1 mM dithiothreitol, 0.02% of Brij, 0.1% of BSA, 0.1% of BioStab, pH 7.5) with or without test substance at 30° C. for 120 min. The reaction is stopped using 25 μl of 200 mM EDTA solution, filtered off with suction after 30 min at room temperature, and the wells are 25 washed 3 times with 100 μl of 0.9% NaCl solution. The non-specific proportion of the kinase reaction (blank) is determined using 3 μM EMD 1126352 (BX-795). Radioactivity is measured in the Topcount. IC50 values are calculated using RS1.
# PDK1 = molecular target: T2, PDK1 (Homo sapiens, UniProt O15530); assay: Test for the inhibition of PDK1, 384-well flashplate; conditions: enzymatic; 4 μM ATP
# T2 construct: the PDK1 sample His6-PDK1(Δ1-50)(3.4 nM)
# T2 sequence (O15530 51-556): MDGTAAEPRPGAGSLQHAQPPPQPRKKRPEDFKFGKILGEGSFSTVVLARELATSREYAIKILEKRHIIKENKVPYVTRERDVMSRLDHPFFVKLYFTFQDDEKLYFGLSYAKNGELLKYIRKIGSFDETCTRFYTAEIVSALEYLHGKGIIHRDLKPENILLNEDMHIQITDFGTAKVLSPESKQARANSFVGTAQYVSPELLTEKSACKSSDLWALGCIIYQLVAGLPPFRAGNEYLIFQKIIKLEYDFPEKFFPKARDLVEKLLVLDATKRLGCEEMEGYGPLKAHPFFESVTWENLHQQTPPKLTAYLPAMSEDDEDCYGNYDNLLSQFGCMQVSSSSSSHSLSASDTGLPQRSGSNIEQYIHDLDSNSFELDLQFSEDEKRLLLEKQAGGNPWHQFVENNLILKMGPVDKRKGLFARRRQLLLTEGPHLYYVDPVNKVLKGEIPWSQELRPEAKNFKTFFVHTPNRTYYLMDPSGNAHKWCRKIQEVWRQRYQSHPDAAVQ
# Method: The experimental batches are carried out in a flashplate system with 384 wells/microtitration plate.
# In each case, the PDK1 sample His6-PDK1(Δ1-50)(3.4 nM) (“His6” disclosed as SEQ ID NO: 4), the PDK1 substrate biotin-bA-bA-[…] (SEQ ID NO: 1) (400 nM), 4 μM ATP (with 0.2 μCi of 33P-ATP/well) and the test substance in 50 μl of conventional experimental solution per well are incubated at 30° C. for 60 min. The test substances are employed in corresponding concentrations (if desired in a dilution series). The control is carried out without test substance. The reaction is stopped using standard methods and washed. The activity of the kinase is measured via the incorporated radioactivity in top count. In order to determine the non-specific kinase reaction (blank value), the experimental batches are carried out in the presence of 100 nM staurosporine.
# The radioactivity (decompositions per minute) of the blank value (no use of test substance in the presence of staurosporine) is subtracted from all other radioactivity values. The controls (kinase activity without test substance) are set equal to 100 percent and all other radioactivity values (after subtracting the blank value) are expressed set in relation thereto (for example in % of the control).
# [1] = molecular target: T3, TANK binding kinase (TBK1) (Homo sapiens, UniProt Q9UHD2); assay: TBK1 kinase test, 384-well flashplate; conditions: enzymatic; 10 μM ATP
# T3 sequence (Q9UHD2 1-729): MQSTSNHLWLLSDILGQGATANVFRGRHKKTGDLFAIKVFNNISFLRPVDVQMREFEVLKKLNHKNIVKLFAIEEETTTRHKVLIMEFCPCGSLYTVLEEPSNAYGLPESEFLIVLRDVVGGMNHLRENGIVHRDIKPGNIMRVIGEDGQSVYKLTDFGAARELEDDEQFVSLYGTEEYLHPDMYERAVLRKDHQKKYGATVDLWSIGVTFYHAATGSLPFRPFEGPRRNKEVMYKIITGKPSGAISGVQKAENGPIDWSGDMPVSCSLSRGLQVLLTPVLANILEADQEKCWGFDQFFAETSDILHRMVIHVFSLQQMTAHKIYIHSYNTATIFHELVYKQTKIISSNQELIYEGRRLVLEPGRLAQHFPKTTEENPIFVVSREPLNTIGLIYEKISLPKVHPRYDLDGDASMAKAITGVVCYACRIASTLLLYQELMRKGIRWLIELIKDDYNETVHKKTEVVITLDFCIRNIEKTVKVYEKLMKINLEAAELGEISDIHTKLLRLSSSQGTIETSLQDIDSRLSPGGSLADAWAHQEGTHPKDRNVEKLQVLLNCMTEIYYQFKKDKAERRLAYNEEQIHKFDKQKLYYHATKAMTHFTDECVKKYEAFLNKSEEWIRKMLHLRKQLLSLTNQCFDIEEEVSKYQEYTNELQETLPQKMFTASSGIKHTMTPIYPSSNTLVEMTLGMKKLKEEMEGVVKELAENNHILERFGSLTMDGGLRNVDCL
# Method: The kinase assay is performed as 384-well flashplate assay. 0.6 nM TANK binding kinase (TBK1), 800 nM biotinylated MELK-derived peptide (biotin-Ah-Ah-[…] (SEQ ID NO: 3)) and 10 μM ATP (with 0.25 μCi of 33P-ATP/well) are incubated in a total volume of 50 μl (10 mM MOPS, 10 mM magnesium acetate, 0.1 mM EGTA, 1 mM DTT, 0.02% of Brij35, 0.1% of BSA, pH 7.5) with or without test substance at 30° C. for 120 min. The reaction is stopped using 25 μl of 200 mM EDTA solution, filtered off with suction after 30 min at room temperature, and the wells are washed 3 times with 100 μl of 0.9% NaCl solution. The non-specific proportion of the kinase reaction (blank) is determined using 100 nM staurosporine. Radioactivity is measured in the Topcount. IC50 values are calculated using RS1.
# FAK = molecular target: T4, FAK (Homo sapiens, UniProt Q05397); assay: FAK kinase assay (autophosphorylation), 384-well flashplate; conditions: enzymatic; 1 μM ATP; read-out: IC50 (enzymatic), FAK inhibition
# T4 construct: 2 nM FAK, 400 nM biotinylated substrate
# T4 sequence (Q05397 whole entry): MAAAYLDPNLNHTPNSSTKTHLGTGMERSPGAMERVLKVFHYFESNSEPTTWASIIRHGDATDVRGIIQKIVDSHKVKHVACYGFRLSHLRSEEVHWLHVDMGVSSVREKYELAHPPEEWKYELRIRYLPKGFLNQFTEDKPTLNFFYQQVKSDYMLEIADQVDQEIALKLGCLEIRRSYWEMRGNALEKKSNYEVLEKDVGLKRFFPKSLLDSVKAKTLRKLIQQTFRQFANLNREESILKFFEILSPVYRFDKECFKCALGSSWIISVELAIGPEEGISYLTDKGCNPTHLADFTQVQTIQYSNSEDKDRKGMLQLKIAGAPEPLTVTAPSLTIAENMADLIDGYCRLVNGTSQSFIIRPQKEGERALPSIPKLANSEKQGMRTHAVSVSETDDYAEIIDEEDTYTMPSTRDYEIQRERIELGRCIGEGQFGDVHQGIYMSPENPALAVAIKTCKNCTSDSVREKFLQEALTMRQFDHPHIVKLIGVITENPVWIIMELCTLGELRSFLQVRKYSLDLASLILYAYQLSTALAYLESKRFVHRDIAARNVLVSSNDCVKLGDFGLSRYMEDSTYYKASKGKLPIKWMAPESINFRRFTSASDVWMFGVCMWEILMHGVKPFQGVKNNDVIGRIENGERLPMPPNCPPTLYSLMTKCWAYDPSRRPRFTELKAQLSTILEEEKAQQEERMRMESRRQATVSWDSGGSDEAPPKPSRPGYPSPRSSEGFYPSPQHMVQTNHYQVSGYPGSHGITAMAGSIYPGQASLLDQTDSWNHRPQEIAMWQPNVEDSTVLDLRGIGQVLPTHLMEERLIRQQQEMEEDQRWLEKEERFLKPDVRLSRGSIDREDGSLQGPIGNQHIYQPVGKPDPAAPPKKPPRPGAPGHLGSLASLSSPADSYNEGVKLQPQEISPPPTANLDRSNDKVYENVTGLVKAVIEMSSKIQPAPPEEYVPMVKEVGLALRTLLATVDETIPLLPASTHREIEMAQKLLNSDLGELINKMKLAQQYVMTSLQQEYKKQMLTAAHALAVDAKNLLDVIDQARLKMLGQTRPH
# Method: The focal adhesion kinase (FAK) assay is carried out either as a 384-well flashplate assay (for example for Topcount measurements) or as a 384-well image flashplate assay (for LEADseeker measurements). […] The reaction is stopped using 25 μl of 200 mM EDTA. After 30 min at 30° C., the liquid is removed, and each well is washed three times with 100 μl of 0.9% sodium chloride solution. Non-specific reaction is determined in the presence of 1 μM EMD 1076893/0(PF-562271). The radioactivity is measured using Topcount (in the case of the use of flashplates) or using LEADseeker (in the case of the use of image flashplates).
SMILES,IC50 (IKKε),IC50 (PDK1),IC50 [1],IC50 (FAK)
"CN(c1ncccc1-c1cc2ccnc(Nc3ccc4c(c3)CC(=O)N4)c2[nH]1)S(C)(=O)=O [A1, N-Methyl-N-{3-[7-(2-oxo-2,3-dihydro-1H-indol-5-ylamino)-1H-pyrrolo-[2,3-c]pyridin-2-yl]-pyridin-2-yl}methanesulfonamide]",,,,3 to 50 µM
"CN(c1ncccc1-c1nc2ncnc(Nc3ccc(N4CCOCC4)cc3)c2[nH]1)S(C)(=O)=O [A5, N-Methyl-N-{3-[6-(4-morpholin-4-ylphenyl-amino)-7H-purin-8-yl]pyridin-2-yl}methanesulfonamide]",,,,3 to 50 µM
"COc1cc(N2CCOCC2)ccc1Nc1ncnc2nc(-c3cccnc3N(C)S(C)(=O)=O)[nH]c12 [A4, N-{3-[6-(2-Methoxy-4-morpholin-4-ylphenyl-amino)-7H-purin-8-yl]pyridin-2-yl}-N-methyl-methanesulfonamide]",,,,3 to 50 µM
"CN(c1ncccc1-c1cc2ccnc(Nc3ccc4c(c3)CCC(=O)N4)c2[nH]1)S(C)(=O)=O [A3, N-Methyl-N-{3-[7-(2-oxo-1,2,3,4-tetrahydroquinolin-6-ylamino)-1H-pyrrolo[2,3-c]pyridin-2-yl]pyridin-2-yl}methanesulfonamide]",,,,3 to 50 µM
"CN(c1ncccc1-c1nc2ccnc(Nc3ccc4c(c3)CCC(=O)N4)c2[nH]1)S(C)(=O)=O [A7, N-Methyl-N-{3-[4-(2-oxo-1,2,3,4-tetra-hydroquinolin-6-ylamino)-3H-imidazo[4,5-c]-pyridin-2-yl]pyridin-2-yl}methanesulfonamide]",,,,3 to 50 µM
"CN(c1ncccc1-c1nc2ncnc(Nc3cnn(C)c3)c2[nH]1)S(C)(=O)=O [A6, N-Methyl-N-{3-[6-(1-methyl-1H-pyrazol-4-yl-amino)-7H-purin-8-yl]pyridin-2-yl}methanesulfonamide]",,,,3 to 50 µM

# Other lines, results leading:
IC50 (IKKε),IC50 (PDK1),IC50 [1],IC50 (FAK),SMILES
0.3 to 3 µM,< 0.3 µM,< 0.3 µM,,"Cn1cc(-c2c(C(F)(F)F)cnc3[nH]c(-c4ccc(C(=O)N5CCOCC5)cc4)cc23)cn1 [A96, {4-[4-(1-Methyl-1H-pyrazol-4-yl)-5-trifluoro-methyl-1H-pyrrolo[2,3-b]pyridin-2-yl]phenyl}-morpholin-4-ylmethanone]"
,0.3 to 3 µM,,,"Cn1cc(-c2c(C(F)(F)F)cnc3[nH]c(-c4cccc(N5CCOCC5)c4)cc23)cn1 [A104, 4-(1-Methyl-1H-pyrazol-4-yl)-2-(3-morpholin-4-ylphenyl)-5-trifluoromethyl-1H-pyrrolo[2,3-b]-pyridine]"
3 to 50 µM,0.3 to 3 µM,0.3 to 3 µM,,"Cn1cc(-c2c(C(F)(F)F)cnc3[nH]c(-c4cccc(C(=O)N5CCOCC5)c4)cc23)cn1 [A95, {3-[4-(1-Methyl-1H-pyrazol-4-yl)-5-trifluoro-methyl-1H-pyrrolo[2,3-b]pyridin-2-yl]phenyl}-morpholin-4-ylmethanone]"
0.3 to 3 µM,0.3 to 3 µM,0.3 to 3 µM,,"O=c1ccc(-c2c(C(F)(F)F)cnc3[nH]c(-c4ccc(N5CCOCC5)cc4)cc23)c[nH]1 [A97, 5-[2-(4-Morpholin-4-ylphenyl)-5-trifluoromethyl-1H-pyrrolo[2,3-b]pyridin-4-yl]-1H-pyridin-2-one]"
,,,3 to 50 µM,"CN(c1ncccc1-c1cc2ccnc(Nc3ccc(N4CCOCC4)cc3)c2[nH]1)S(C)(=O)=O [A2, N-Methyl-N-{3-[7-(4-morpholin-4-ylphenyl-amino)-1H-pyrrolo[2,3-c]pyridin-2-yl]pyridin-2-yl}methanesulfonamide]"
,3 to 50 µM,,,"FC(F)(F)c1cnc2[nH]c(-c3ccc(N4CCOCC4)cc3)cc2c1-c1cn[nH]c1 [A102, 2-(4-Morpholin-4-ylphenyl)-4-(1H-pyrazol-4-yl)-5-trifluoromethyl-1H-pyrrolo[2,3-b]pyridine]"
,,0.3 to 3 µM,,"Nc1ccc(-c2c(C(F)(F)F)cnc3[nH]c(-c4ccc(N5CCOCC5)cc4)cc23)cc1 [A100, 4-[2-(4-Morpholin-4-ylphenyl)-5-trifluoromethyl-1H-pyrrolo[2,3-b]pyridin-4-yl]phenylamine]"
,0.3 to 3 µM,,,"Cn1cc(-c2c(C(F)(F)F)cnc3[nH]c(-c4ccc(F)cc4)cc23)cn1 [A105, 2-(4-Fluorophenyl)-4-(1-methyl-1H-pyrazol-4-yl)-5-trifluoromethyl-1H-pyrrolo[2,3-b]pyridine]"
